# “And” between values parts separate entries of the source, which are not always exact repeats. Equal values may be shown once. After the bases stand the sugars from the 5' end (letter, count) and the backbone: PS all phosphorothioate, else s phosphorothioate and o phosphodiester by linkage. Methylation of C is not given here. e = 2'-O-(2-methoxyethyl) (MOE); l = locked nucleic acid (LNA); k = constrained ethyl (cEt); d = 2'-deoxy (DNA)
# Columns and labels:
# [1] = biological target: ANGPTL2; details: ASO
# [2] = biological target: KRAS; details: ASO
sequence,measurement,setting,value
"TGAAGGAAAGTAGGAGGGA (sugars l1 d15 l3, PS)",target mRNA inhibition,[1]; 5 µM,10.6%
same,target mRNA inhibition,[1]; 25 µM,16.5%
"TGATGCGGTTGTAGGT (sugars l2 d12 l2, PS)",target mRNA inhibition,[1]; 5 µM,73.2%
"TGATTTGTCAGCAGGA (sugars kkddddddddddkeke, PS)",target mRNA inhibition,"[2]; A431, 0.185 µM",31%
same,target mRNA inhibition,"[2]; A431, 0.556 µM",48%
same,target mRNA inhibition,"[2]; A431, 1.667 µM",67%
same,target mRNA inhibition,"[2]; A431, 2 µM",55%
same,target mRNA inhibition,"[2]; A431, 5 µM",8%
"TGATTTGTCAGCAGGA (sugars kkddddddddkekekk, PS)",target mRNA inhibition,"[2]; A431, 2 µM",32% and 17%
"TGCTGGGGCACAATGAA (sugars l2 d12 l3, PS)",target mRNA inhibition,[1]; 5 µM,28.2%
same,target mRNA inhibition,[1]; 25 µM,2.72%
"TGCTGTGAAACTCTCT (sugars k3 d9 k3 e1, PS)",target mRNA inhibition,"[2]; A431, 2 µM",23%
"TGGGCATAGTGGGCAGA (sugars l1 d14 l2, PS)",target mRNA inhibition,[1]; 5 µM,58.9%
same,target mRNA inhibition,[1]; 25 µM,64%
"TGGTGAATATCTTCAA (sugars k3 d10 k3, PS)",target mRNA inhibition,"[2]; A431, 2 µM",9%
"TGGTGTAACATAGGTT (sugars k3 d9 k3 e1, PS)",target mRNA inhibition,"[2]; A431, 0.185 µM",21%
same,target mRNA inhibition,"[2]; A431, 0.556 µM",46%
same,target mRNA inhibition,"[2]; A431, 1.667 µM",69%
same,target mRNA inhibition,"[2]; A431, 2 µM",56%
same,target mRNA inhibition,"[2]; A431, 5 µM",80%
"TGGTGTAACATAGGTT (sugars kkddddddddddkeke, PS)",target mRNA inhibition,"[2]; A431, 0.185 µM",28%
same,target mRNA inhibition,"[2]; A431, 0.556 µM",62%
same,target mRNA inhibition,"[2]; A431, 1.667 µM",74%
same,target mRNA inhibition,"[2]; A431, 2 µM",67%
same,target mRNA inhibition,"[2]; A431, 5 µM",87%
same,target mRNA inhibition,"[2]; NCI-H460, 0.037 µM",64.3%
"TGGTGTAACATAGGTT (sugars kkdddddddddkdkdk, PS)",target mRNA inhibition,"[2]; A431, 0.185 µM",13%
same,target mRNA inhibition,"[2]; A431, 0.556 µM",33%
same,target mRNA inhibition,"[2]; A431, 1.667 µM",63%
same,target mRNA inhibition,"[2]; A431, 2 µM",57%
same,target mRNA inhibition,"[2]; A431, 5 µM",75%
"TGGTTGATGATGCGGTTG (sugars l2 d14 l2, PS)",target mRNA inhibition,[1]; 5 µM,77.6%
same,target mRNA inhibition,[1]; 25 µM,86.1%
"TGTAGGTGCACTTGTC (sugars l2 d12 l2, PS)",target mRNA inhibition,[1]; 5 µM,28.5%
same,target mRNA inhibition,[1]; 25 µM,49.4%
"TGTAGTTTCACATAGC (sugars k3 d10 k3, PS)",target mRNA inhibition,"[2]; A431, 0.185 µM",28% and 3%
same,target mRNA inhibition,"[2]; A431, 0.556 µM",45% and 34%
same,target mRNA inhibition,"[2]; A431, 2 µM",59%
same,target mRNA inhibition,"[2]; A431, 5 µM",75% and 69%
"TGTTTATGCAATGTTA (sugars k3 d9 k3 e1, PS)",target mRNA inhibition,"[2]; A431, 0.185 µM",43%
same,target mRNA inhibition,"[2]; A431, 0.556 µM",57%
same,target mRNA inhibition,"[2]; A431, 1.667 µM",78%
same,target mRNA inhibition,"[2]; A431, 2 µM",72%
same,target mRNA inhibition,"[2]; A431, 5 µM",90%
same,target mRNA inhibition,"[2]; NCI-H460, 0.037 µM",65.6%
"TGTTTATGCAATGTTA (sugars kkkddddddddkekek, PS)",target mRNA inhibition,"[2]; A431, 2 µM",52%
"TTAACAGAGCCATCCAGG (sugars l1 d15 l2, PS)",target mRNA inhibition,[1]; 5 µM,24.9%
same,target mRNA inhibition,[1]; 25 µM,25.4%
"TTAATCCATTTATGTG (sugars k3 d10 k3, PS)",target mRNA inhibition,"[2]; A431, 2 µM",34%
"TTAGTGATTAGGTCAA (sugars kkdddddddddkekek, PS)",target mRNA inhibition,"[2]; A431, 2 µM",48%
"TTAGTGATTAGGTCAA (sugars kkddddddddkekekk, PS)",target mRNA inhibition,"[2]; A431, 2 µM",33%
"TTATGGTTAGGGGAAT (sugars k3 d10 k3, PS)",target mRNA inhibition,"[2]; A431, 2 µM",21%
"TTCAAAGTTCACATAA (sugars k3 d10 k3, PS)",target mRNA inhibition,"[2]; A431, 2 µM",7%
"TTCATTGTTTAAAAAA (sugars k3 d10 k3, PS)",target mRNA inhibition,"[2]; A431, 2 µM",6%
"TTGAAAAGTGTTTATG (sugars k3 d10 k3, PS)",target mRNA inhibition,"[2]; A431, 2 µM",26%
"TTGAGATTCCCCCAAAG (sugars l2 d11 l4, PS)",target mRNA inhibition,[1]; 5 µM,28.3%
same,target mRNA inhibition,[1]; 25 µM,41.2%
"TTGATGATGCGGTTGTAGG (sugars l2 d15 l2, PS)",target mRNA inhibition,[1]; 5 µM,55.3%
same,target mRNA inhibition,[1]; 25 µM,67.3%
"TTGATGATGCGGTTGTAGGT (sugars l1 d17 l2, PS)",target mRNA inhibition,[1]; 5 µM,41.3%
same,target mRNA inhibition,[1]; 25 µM,48.7%
"TTGATTTGTCAGCAGG (sugars kkddddddddddkeke, PS)",target mRNA inhibition,"[2]; A431, 0.185 µM",25%
same,target mRNA inhibition,"[2]; A431, 0.556 µM",48%
same,target mRNA inhibition,"[2]; A431, 1.667 µM",62%
same,target mRNA inhibition,"[2]; A431, 2 µM",66% and 45%
same,target mRNA inhibition,"[2]; A431, 5 µM",83%
"TTGATTTGTCAGCAGG (sugars kkdddddddddkdkdk, PS)",target mRNA inhibition,"[2]; A431, 2 µM",53%
"TTGGACAACTAGGCAGCA (sugars l3 d13 l2, PS)",target mRNA inhibition,[1]; 5 µM,38.8%
same,target mRNA inhibition,[1]; 25 µM,60.3%
"TTGTACTAGTATGCCT (sugars k3 d10 k3, PS)",target mRNA inhibition,"[2]; A431, 2 µM",55%
"TTTAATGTCACAAGCA (sugars k3 d10 k3, PS)",target mRNA inhibition,"[2]; A431, 0.037 µM",58%
same,target mRNA inhibition,"[2]; A431, 2 µM",57%
same,target mRNA inhibition,"[2]; A431, 5 µM",96% and 93%
same,target mRNA inhibition,"[2]; NCI-H460, 0.037 µM",44.2%
"TTTATGCAATGTTAAT (sugars k3 d10 k3, PS)",target mRNA inhibition,"[2]; A431, 2 µM",34%
"TTTTAATGTCACAAGC (sugars k3 d10 k3, PS)",target mRNA inhibition,"[2]; A431, 2 µM",52%

# From the OligoGym collection
